Results as given in PMC8170132, “Kinetics of Abacavir-Induced Remodelling of the Major Histocompatibility Complex Class I Peptide Repertoire” (Frontiers in Immunology, 2021).

Columns and labels:
HLA-B*57:01fos [1] = target: T1, HLA-B*57:01fos (Homo sapiens, UniProt P01889, D201E/D98Y/E176V/E187L/E204Q/E69M/E70A/G107R/I90N/K202T/L105A/L119I/N104I/N87E/Q89R/Q94S/R106L/R155S/R180L/R86G/S101N/S121V/S35A/S48A/T118I/V36M/Y140S/Y91M); experiment: Fluorescence polarisation dissociation rate measurements; type: binding; conditions: for Effect of abacavir on dissociation of the peptide from HLA-B*57:01fos: 60 µM abacavir with competing peptide; for Half life (hours) of dissociation from HLA-B*57:01fos, Comp+Abacavir / Half life (hours) of dissociation from HLA-B*57:01fos, Comp+Tapasin+Abacavir / Half life (hours) of dissociation from HLA-B*57:01fos, Comp+Tapasin: as Comp; for Half life (hours) of dissociation from HLA-B*57:01fos, Comp+Abacavir: plus 60 µM abacavir; for Half life (hours) of dissociation from HLA-B*57:01fos, Comp+Abacavir / Half life (hours) of dissociation from HLA-B*57:01fos, Comp+Tapasin+Abacavir / Half life (hours) of dissociation from HLA-B*57:01fos, Comp / Half life (hours) of dissociation from HLA-B*57:01fos, Comp+Tapasin: fluorescence polarisation, 25°C, one-phase decay, plateau 50 mP (unconstrained for RVD), 3-4 replicates; for Half life (hours) of dissociation from HLA-B*57:01fos, Comp+Tapasin+Abacavir: plus tapasin-jun-ERp57 C60A and 60 µM abacavir; for Half life (hours) of dissociation from HLA-B*57:01fos, Comp: PBS + 0.5 mg/ml bovine-gamma-globulin, 20 fold excess human β2m, excess unlabelled competing peptide only; for Tapasin dependent enhancement of dissociation: tapasin-jun-ERp57 C60A with competing peptide; for Half life (hours) of dissociation from HLA-B*57:01fos, Comp+Tapasin: plus conjugated tapasin-jun-ERp57 C60A (mostly 0.254 µM)
T1 construct: Fos leucine zipper (C); made in house
Experimental: (§1) Peptide loaded HLA-B*57:01fos complexes were obtained as described ([50]) by refolding solubilised inclusion bodies of HLA-B*57:01fos heavy chains with human β 2m and UV-labile HLA-B57-conditional peptide ligand.
(§2) Fluorescence polarisation measurements were taken using a SpectraMax i3x Multi-Mode Microplate Reader (Molecular Devices) with rhodamine detection cartridge. All experiments were conducted at 25°C and used PBS supplemented with 0.5 mg/ml bovine-gamma-globulin (Sigma), and a 20 fold molar excess of human β 2m (Fitzgerald) in a volume of 60 µl. Binding of TAMRA-labelled peptides is reported in millipolarisation units (mP) and is obtained from the equation mP = 1,000 × (S – G × P)/(S + G × P), where S and P are background subtracted fluorescence count rates (S = polarisation emission filter is parallel to the excitation filter; P = polarisation emission filter is perpendicular to the excitation filter) and G (grating) is an instrument and assay dependent factor.
HLA-B*57:01fos molecules were UV exposed and then allowed to bind fluorescent peptides overnight at room temperature. Florescence polarisation measurements were taken after the addition of excess non-labelled competitor peptide (otherwise identical to the labelled peptide) in the absence or presence of 60 µM abacavir or conjugated tapasin-jun-ERp57 C60A proteins. […] Most experiments used 0.55 µM HLA-B*57:01fos molecules, but some experiments involved different preparations of HLA-B*57:01fos which required higher concentrations of HLA-B*57:01fos, up to a maximum of 1.38 µM HLA-B*57:01fos, to achieve equivalent polarisation levels.
Supplementary Table 2. Dissociation rates of TAMRA-labelled peptides from HLA-B*57:01fos molecules. The rates at which the indicated peptides dissociated from HLA-B*57:01fos molecules in the presence of excess unlabelled competing peptide (“Comp”), abacavir and tapasin (data shown in figure 7) was measured by Graphpad Prism v9.1.0. The dissociation rates were calculated by performing non-linear regression, using the one-phase decay method, with plateaus constrained to be equal to 50 mP (apart from being unconstrained for RVD peptide). The number of experimental replicates, and the standard deviation in the measured dissociation rates across the replicates is also presented.

HLA-B*57:01fos [2] = target: T1, HLA-B*57:01fos; experiment: Fluorescence polarisation association rate measurements; type: binding; conditions: 25°C; for Effect of combined abacavir and tapasin on binding of fluorescent peptide to HLA-B*57:01fos: 60 µM abacavir + tapasin-jun; for Effect of combined abacavir and tapasin on binding of fluorescent peptide to HLA-B*57:01fos / Effect of abacavir on binding of fluorescent peptide to HLA-B*57:01fos / Effect of tapasin on binding of fluorescent peptide to HLA-B*57:01fos: fluorescence polarisation; for Effect of abacavir on binding of fluorescent peptide to HLA-B*57:01fos: 60 µM abacavir; for Intrinsic binding of fluorescent peptide to UV exposed HLA-B*57:01fos: peptide alone, fluorescence polarisation (mP); for Effect of tapasin on binding of fluorescent peptide to HLA-B*57:01fos: tapasin-jun or tapasin-jun ERp57 C60A conjugate
Experimental: as §1, §2
Peptide-receptive HLA-B*57:01fos were obtained by exposing HLA-B*57:01fos complexes loaded with UV labile conditional peptide ligand to ~360 nm light for 20 min at 4°C (“UV exposed” hereafter). The binding of fluorescent peptides to UV exposed HLA-B*57:01fos was monitored in the absence or presence of excess (60 µM) abacavir or tapasin-jun or tapasin-jun ERp57 C60A conjugate. […] Most experiments used 0.55 µM HLA-B*57:01fos molecules, but a minority of experiments involved different preparations of HLA-B*57:01fos which required higher concentrations of HLA-B*57:01fos, up to a maximum of 3.18 µM HLA-B*57:01fos, to achieve equivalent polarisation levels.

HLA-B*57:01 [3] = target: T2, HLA-B*57:01 (Homo sapiens, UniProt P01889, D201E/D98Y/E176V/E187L/E204Q/E69M/E70A/G107R/I90N/K202T/L105A/L119I/N104I/N87E/Q89R/Q94S/R106L/R155S/R180L/R86G/S101N/S121V/S35A/S48A/T118I/V36M/Y140S/Y91M); experiment: LC-MRM-MS quantitation of HLA ligands and co-purified abacavir from abacavir treated C1R.B*57:01 cells; type: cell-based; conditions: for Abacavir dependence: LC-MRM-MS detection, classification of the peptide based on abacavir dependency; for Linear regression slope: linear regression of LC-MRM-MS peptide abundance over abacavir treatment time; for Category of abacavir impact on peptide abundance in the immunopeptidome: C1R.B*57:01, 35 µM abacavir 0-16 h or constant, linear regression of normalised abundance, three replicates
HLA-B*57:01 [4] = target: T2, HLA-B*57:01; parameters: method as in Illing et al., Nature 2012; conditions: ref Illing et al., Nature 2012, cited from earlier work; for HLA-B*57:01 previous observation by LC-MS/MS, Abacavir treated: abacavir treated cells; for HLA-B*57:01 previous observation by LC-MS/MS, Untreated: untreated cells

Substance	Abacavir dependence (HLA-B*57:01 [3])	Linear regression slope (HLA-B*57:01 [3])	HLA-B*57:01 previous observation by LC-MS/MS, Abacavir treated (HLA-B*57:01 [4])	HLA-B*57:01 previous observation by LC-MS/MS, Untreated (HLA-B*57:01 [4])	other results
KTFK*DVGNLL					Effect of abacavir on dissociation of the peptide from HLA-B*57:01fos (HLA-B*57:01fos [1]): pronounced decrease in the dissociation; Half life (hours) of dissociation from HLA-B*57:01fos, Comp+Abacavir (HLA-B*57:01fos [1]): 814.20 h; Half life (hours) of dissociation from HLA-B*57:01fos, Comp+Tapasin+Abacavir (HLA-B*57:01fos [1]): 62.89 h; Half life (hours) of dissociation from HLA-B*57:01fos, Comp (HLA-B*57:01fos [1]): 402.30 h; Tapasin dependent enhancement of dissociation (HLA-B*57:01fos [1]): significant; Effect of combined abacavir and tapasin on binding of fluorescent peptide to HLA-B*57:01fos (HLA-B*57:01fos [2]): occurred faster than in the presence of tapasin or abacavir alone; Effect of abacavir on binding of fluorescent peptide to HLA-B*57:01fos (HLA-B*57:01fos [2]): binding strongly enhanced; Intrinsic binding of fluorescent peptide to UV exposed HLA-B*57:01fos (HLA-B*57:01fos [2]): limited intrinsic ability to bind; Effect of tapasin on binding of fluorescent peptide to HLA-B*57:01fos (HLA-B*57:01fos [2]): binding strongly enhanced
LTTK*LTNTNI					Effect of tapasin on binding of fluorescent peptide to HLA-B*57:01fos (HLA-B*57:01fos [2]): did not affect the binding
TSLK*SRVTI					Effect of abacavir on dissociation of the peptide from HLA-B*57:01fos (HLA-B*57:01fos [1]): pronounced decrease in the dissociation; Half life (hours) of dissociation from HLA-B*57:01fos, Comp+Abacavir (HLA-B*57:01fos [1]): 22.41 h; Half life (hours) of dissociation from HLA-B*57:01fos, Comp+Tapasin (HLA-B*57:01fos [1]): 5.12 h; Half life (hours) of dissociation from HLA-B*57:01fos, Comp+Tapasin+Abacavir (HLA-B*57:01fos [1]): 10.38 h; Half life (hours) of dissociation from HLA-B*57:01fos, Comp (HLA-B*57:01fos [1]): 7.41 h; Effect of combined abacavir and tapasin on binding of fluorescent peptide to HLA-B*57:01fos (HLA-B*57:01fos [2]): occurred faster than in the presence of tapasin or abacavir alone; Effect of abacavir on binding of fluorescent peptide to HLA-B*57:01fos (HLA-B*57:01fos [2]): binding strongly enhanced; Intrinsic binding of fluorescent peptide to UV exposed HLA-B*57:01fos (HLA-B*57:01fos [2]): limited intrinsic ability to bind; Effect of tapasin on binding of fluorescent peptide to HLA-B*57:01fos (HLA-B*57:01fos [2]): binding strongly enhanced
VTKK*TYEIW [TAMRA labelled canonical HLA-B*57:01 peptide]					Effect of abacavir on dissociation of the peptide from HLA-B*57:01fos (HLA-B*57:01fos [1]): minimal impact on the dissociation; Half life (hours) of dissociation from HLA-B*57:01fos, Comp+Abacavir (HLA-B*57:01fos [1]): 373.30 h; Half life (hours) of dissociation from HLA-B*57:01fos, Comp+Tapasin (HLA-B*57:01fos [1]): 207.90 h; Half life (hours) of dissociation from HLA-B*57:01fos, Comp+Tapasin+Abacavir (HLA-B*57:01fos [1]): 198.40 h; Rate of dissociation from HLA-B*57:01fos (in words) (HLA-B*57:01fos [1]; competing peptide only): hundreds of hours; Half life (hours) of dissociation from HLA-B*57:01fos, Comp (HLA-B*57:01fos [1]): 374.80 h; Effect of combined abacavir and tapasin on binding of fluorescent peptide to HLA-B*57:01fos (HLA-B*57:01fos [2]): did not enhance the binding; Intrinsic binding of fluorescent peptide to UV exposed HLA-B*57:01fos (HLA-B*57:01fos [2]): bound to HLA-B*57:01 molecules; Effect of tapasin on binding of fluorescent peptide to HLA-B*57:01fos (HLA-B*57:01fos [2]): catalysed binding of the VTK and ITT peptides to a greater extent than abacavir
NTVELRVK*I					Effect of abacavir on dissociation of the peptide from HLA-B*57:01fos (HLA-B*57:01fos [1]): pronounced decrease in the dissociation; Half life (hours) of dissociation from HLA-B*57:01fos, Comp+Abacavir (HLA-B*57:01fos [1]): 233.60 h; Half life (hours) of dissociation from HLA-B*57:01fos, Comp+Tapasin (HLA-B*57:01fos [1]): 1.60 h; Half life (hours) of dissociation from HLA-B*57:01fos, Comp+Tapasin+Abacavir (HLA-B*57:01fos [1]): 142.70 h; Half life (hours) of dissociation from HLA-B*57:01fos, Comp (HLA-B*57:01fos [1]): 2.67 h; Tapasin dependent enhancement of dissociation (HLA-B*57:01fos [1]): minimal; Effect of tapasin on binding of fluorescent peptide to HLA-B*57:01fos (HLA-B*57:01fos [2]): did not affect the binding
ITTKAISRW [canonical peptide ligand of HLA-B*57:01]					Effect of abacavir on binding of fluorescent peptide to HLA-B*57:01fos (HLA-B*57:01fos [2]): enhanced the binding
HSMSDPGVSY	Minimal	0.0044	+ (+ (< 5% FDR))	+ (+ (< 5% FDR))	
STIRLLTSL	Facilitated	0.0278	+ (+ (< 5% FDR))	+ (+ (< 5% FDR))	
FSHRIYVAY	Minimal	0.0098	+ (+ (< 5% FDR))	+ (+ (< 5% FDR))	
IFDSKVTEI		-0.0096	+ (+ (< 5% FDR))	+ (+ (< 5% FDR))	
TSQAGLFRLW	Minimal	0.0067	+ (+ (< 5% FDR))	+ (+ (< 5% FDR))	
IVFPGSTGHI	Dependent	0.0377	+ (+ (< 5% FDR))		
KTLEGEFSV	Dependent	0.0463	+ (+ (< 5% FDR))		
ISIHVGQAGVQI	Dependent	0.0259	+ (+ (< 5% FDR))		
KTFTTQETI [HLA-B*57:01 ligand]			+ (+ (< 5% FDR))	+ (+ (< 5% FDR))	Category of abacavir impact on peptide abundance in the immunopeptidome (HLA-B*57:01 [3]): abacavir facilitated (abacavir facilitated (slope > 0.02, abundance > 0 at t = 0 in at least two of three replicates))
YTDNLVRVW [HLA-B*57:01 ligand derived from RACK1]	Minimal	-0.0088	+ (+ (< 5% FDR))	+ (+ (< 5% FDR))	Category of abacavir impact on peptide abundance in the immunopeptidome (HLA-B*57:01 [3]): minimally impacted by abacavir
VTKKTYEIW [non-labelled canonical HLA-B*57:01 ligand]	Minimal	0.0161	+ (+ (< 5% FDR))	+ (+ (< 5% FDR))	Effect of abacavir on binding of fluorescent peptide to HLA-B*57:01fos (HLA-B*57:01fos [2]): enhanced the binding; Category of abacavir impact on peptide abundance in the immunopeptidome (HLA-B*57:01 [3]): Minimal
SSAEVKVTI	Dependent	0.0466	+ (+ (< 5% FDR))		
VSAKEKYYVW	Minimal	-0.0125	+ (+ (< 5% FDR))	+ (+ (< 5% FDR))	
